According to patent US20240131040A1, “COMPOSITIONS AND METHODS RELATED TO CANNABINOID ANIONS” (NATURAL EXTRACTION SYSTEMS, LLC, priority 2021, published 2024):

Columns and labels:
[1] = system: individual who presented with cramping and restless legs syndrome; assay: Case report: cramping and restless legs syndrome; format: in vivo, humans; settings: glycerol tincture before sleep
Experimental: An individual who presented with cramping and restless legs syndrome was administered a glycerol tincture containing the cannabidiol anion before sleep.

[2] = system: individual with hip pain and lower back pain associated with spinal fusion surgery; assay: Case report: post laminectomy syndrome; format: in vivo, humans; settings: glycerol tincture, ingested
Experimental: An individual with hip pain and lower back pain associated with spinal fusion surgery was administered a glycerol tincture containing the cannabidiol anion.

[3] = system: individual who presented with chronic back pain associated with standing; assay: Case report: chronic back pain; format: in vivo, humans; settings: glycerol tincture, ingested
Experimental: An individual who presented with chronic back pain associated with standing was administered a glycerol tincture containing the cannabidiol anion.

[4] = system: individual with arthritis; assay: Case report: arthritis; format: in vivo, humans; settings: glycerol tincture
Experimental: An individual who was unable to fill […] hydroxychloroquine prescription to treat the arthritis during the COVID-19 pandemic was administered a glycerol tincture containing the cannabidiol anion.

[5] = system: individual who presented with back pain associated with driving for prolonged periods of time; assay: Case report: acute back pain; format: in vivo, humans; settings: glycerol tincture, ingested
Experimental: An individual who presented with back pain associated with driving for prolonged periods of time was administered a glycerol tincture containing the cannabidiol anion.

[6] = system: individual who presented with chronic pain; assay: Case report: chronic pain; format: in vivo, humans; settings: glycerol tincture
Experimental: An individual who presented with chronic pain was administered a glycerol tincture containing the cannabidiol anion.

individuals with anxiety = assay: Case reports: anxiety; format: in vivo, humans
Experimental: An individual was administered a beverage containing the cannabidiol anion prior to driving to an airport to catch a flight that was scheduled to leave within thirty minutes of the arrival at the airport.
An individual who suffers from chronic anxiety was administered a glycerol tincture containing the cannabigerol anion.

[7] = system: dog that suffers from chronic seizures; assay: Case report: epilepsy in a dog; format: in vivo; settings: glycerol tincture immediately after the onset of a seizure
Experimental: A dog that suffers from chronic seizures was administered a glycerol tincture containing the cannabidiol anion immediately after the onset of a seizure.

[8] = system: individual who presented with social anxiety associated with presenting at business meetings; assay: Case report: social anxiety; format: in vivo, humans; settings: beverage containing the anion, before presenting
Experimental: An individual who presented with social anxiety associated with presenting at business meetings was administered a beverage containing the cannabidiol anion before presenting.

[9] = system: individual who presented with knee pain associated with inflammation caused by trauma from a fall; assay: Case report: knee pain; format: in vivo, humans; settings: glycerol tincture, ingested
Experimental: An individual who presented with knee pain associated with inflammation caused by trauma from a fall was administered a glycerol tincture containing the cannabidiol anion.

[10] = system: individual who presented with cancer pain caused by throat cancer; assay: Case report: cancer pain; format: in vivo, humans; settings: water containing the anion, ingested
Experimental: An individual who presented with cancer pain caused by throat cancer was administered water containing the cannabidiol anion (2-[6-isopropenyl-3-methylcyclohex-2-enyl]-3-hydroxy-5-pentylphenolate).

[11] = system: individual who presented with hip pain associated with sitting; assay: Case report: chronic hip pain; format: in vivo, humans; settings: glycerol tincture, ingested
Experimental: An individual who presented with hip pain associated with sitting was administered a glycerol tincture containing the cannabidiol anion.

[12] = system: individual who presented with Crohn's disease; assay: Case report: Crohn's disease; format: in vivo, humans; settings: glycerol tincture
Experimental: An individual who presented with Crohn's disease was administered a glycerol tincture containing the cannabigerol anion.

[13] = system: individual who presented with Inflammatory Bowel Disease; assay: Case report: Inflammatory Bowel Disease; format: in vivo, humans; settings: glycerol tincture
Experimental: An individual who presented with Inflammatory Bowel Disease was administered a glycerol tincture containing the cannabigerol anion.

[14] = system: individual who presented with chronic insomnia; assay: Case report: insomnia; format: in vivo, humans; settings: glycerol tincture before sleep
Experimental: An individual who presented with chronic insomnia was administered a glycerol tincture containing the cannabigerol anion before sleep.

[15] = system: individual who presented with plaque psoriasis; assay: Case report: plaque psoriasis; format: in vivo, humans; settings: glycerol formulation, topical
From the text: An individual who presented with plaque psoriasis topically administered a glycerol formulation containing the cannabigerol anion.

[16] = system: individual who presented with peripheral neuropathy; assay: Case report: peripheral neuropathy; format: in vivo, humans; settings: glycerol formulation, topical
From the text: An individual who presented with peripheral neuropathy topically administered a glycerol formulation containing the cannabigerol anion.

[17] = system: neutrophil-mediated inflammation; assay: Zymosan A knee arthritis model: neutrophil elastase imaging and transcript RT-PCR; format: in vivo; settings: male C57BL/6J mice; for imaged right knee neutrophil elastase: relative to vehicle control group, imaged 4 hours post-injection, 1-64 mg/kg/day oral gavage; for adamts4 transcripts / myeloperoxidase transcripts / neutrophil elastase transcripts: relative to vehicle control groups, real-time PCR
Experimental: Male C57BL/6J mice are administered either vehicle or a cannabinoid. The cannabinoid is selected from cannabigerol and cannabigerovarin. The cannabinoid is administered at an amount of either 1, 2, 4, 8, 16, 32, or 64 milligrams cannabinoid per kilogram mouse body weight per day by oral gavage beginning when they are two months old.
Following one month of administration, mice are anesthetized with isoflurane and then 180 micrograms of zymosan A in saline is injected into the right knee of each mouse. Equivalent volumes of saline are injected into the left knee of each mouse. Mice are then injected with Neutrophil Elastase 680 FAST imaging probe (Perkin Elmer, Massachusetts, United States) and imaged 4 hours post-injection using an IVIS Spectrum In Vivo Imaging System (Perkin Elmer) to measure neutrophil-mediated inflammation. Mouse RNA is extracted and purified, and then relative adamts4 transcript, relative neutrophil elastase transcript, and relative myeloperoxidase transcript concentrations are measured following reverse transcription using real-time polymerase chain reactions.

Female Sabra mice = assay: Zymosan A right hind paw arthritis model: paw swelling (calipers) and pain (Von Frey); format: in vivo; settings: relative to vehicle control groups, 1-64 mg/kg/day oral gavage for one month; for right hind paw inflammation: swelling at 1, 2, 6, 12, 24 hours after zymosan A; for right hind paw pain: Von Frey hair aesthesiometer
Experimental: (§1) Female Sabra mice are administered either vehicle or a cannabinoid. The cannabinoid is selected from 2-geranyl-5-pentylbenzene-1,3-diol (“cannabigerol”) and 2-geranyl-5-propylbenzene-1,3-diol (“cannabigerovarin”). The cannabinoid is administered at an amount of either 1, 2, 4, 8, 16, 32, or 64 milligrams cannabinoid per kilogram mouse body weight per day by oral gavage beginning when they are two months old.
(§2) Following one month of administration of either vehicle or a cannabinoid, 30 microliters of a 2 percent weight-by-volume suspension of zymosan A in saline is injected into each right hind paw of the mice. Inflammation is measured with calipers to determine right hind paw swelling at 1, 2, 6, 12, and 24 hours following the zymosan A injection relative to left hind paw. Pain is measured with a Von Frey hair aesthesiometer to determine right hind paw sensitivity to force relative to left hind paw. Serum TNF-alpha concentration is measured at 24 hours by enzyme-linked immunosorbent assay.

TNF-alpha = assay: Serum TNF-alpha by enzyme-linked immunosorbent assay in zymosan A paw model; format: in vivo, mice; settings: relative to vehicle control groups; 24 hours after zymosan A; 1-64 mg/kg/day oral gavage
Experimental: as §1, §2

Mice fed a high-fat diet = assay: Diet-induced obesity model: body weight, serum ALT/AST, liver steatosis; format: in vivo; settings: 1-64 mg/kg/day oral gavage for two months; for liver steatosis: hematoxylin and eosin staining
Experimental: Mice are fed either a control standard diet or a high-fat diet beginning when they are two months old. The mice are concomitantly administered either vehicle or a cannabinoid selected from cannabigerol and cannabigerovarin at an amount of either 1, 2, 4, 8, 16, 32, or 64 milligrams cannabinoid per kilogram mouse body weight per day by oral gavage.
Mouse body weights are measured daily. The mice are sacrificed when they are four months old following two months of the diet, cannabinoid (or vehicle), and weighing. Serum alanine aminotransferase (“ALT”) and serum aspartate aminotransferase (“AST”) are measured using a Reflotran Plus blood chemistry system (Roche, Switzerland). Mouse livers are fixed and then stained with hematoxylin and eosin to visualize liver steatosis.

| Structure (SMILES) | imaged right knee neutrophil elastase [17] | adamts4 transcripts [17] | myeloperoxidase transcripts [17] | neutrophil elastase transcripts [17] | right hind paw inflammation (Female Sabra mice) | right hind paw pain (Female Sabra mice) | serum TNF-alpha concentration (TNF-alpha) | body weight (Mice fed a high-fat diet) | serum ALT (Mice fed a high-fat diet) | serum AST (Mice fed a high-fat diet) | liver steatosis (Mice fed a high-fat diet) | other results |
| --- | --- | --- | --- | --- | --- | --- | --- | --- | --- | --- | --- | --- |
| C=C(C)C1CCC(C)=CC1c1c(O)cc(CCCCC)cc1O (stereo not shown) [cannabidiol anion, 2-[6-isopropenyl-3-methylcyclohex-2-enyl]-3-hydroxy-5-pentylphenolate] | – | – | – | – | – | – | – | – | – | – | – | sleep quality (self-reported) [1]: significant improvement in sleep quality; hip pain and lower back pain (self-reported) [2]: notable alleviation of hip pain and lower back pain within minutes of ingestion; back pain (self-reported) [3]: notable alleviation of the back pain within minutes of ingestion; treatment of arthritis compared with hydroxychloroquine (self-reported) [4]: more effective at treating their arthritis than hydroxychloroquine; back pain (self-reported) [5]: notable alleviation of the back pain within minutes of ingestion; chronic pain (self-reported) [6]: alleviation of pain that significantly improved their standard of living; anxiety during drive to airport (self-reported) (individuals with anxiety; beverage containing the anion, before driving): notable absence of anxiety; seizures (reported by owners) [7]: both instantaneously and consistently arrested multiple seizures in the dog; social anxiety and performance during business meeting (self-reported) [8]: reduced anxiety and improved performance during the business meeting; mobility and knee pain (self-reported) [9]: improved mobility and alleviation of knee pain within minutes of ingestion; throat pain (self-reported) [10]: notable alleviation of throat pain within minutes of ingestion; hip pain (self-reported) [11]: notable alleviation of the hip pain within minutes of ingestion |
| CCCCCc1cc(O)c(C/C=C(\C)CCC=C(C)C)c(O)c1 [cannabigerol anion, 2-geranyl-3-hydroxy-5-pentylphenolate] | – | – | – | – | – | – | – | – | – | – | – | symptoms of Crohn's disease (self-reported) [12]: significant improvement in their symptoms of Crohn's disease; symptoms of Inflammatory Bowel Disease (self-reported) [13]: significant improvement in their symptoms of Inflammatory Bowel Disease; onset and quality of sleep (self-reported) [14]: significant improvement in the onset and quality of their sleep; chronic anxiety symptoms (self-reported) (individuals with anxiety; glycerol tincture): significant improvement in their anxiety symptoms; plaque psoriasis symptoms (self-reported) [15]: significant improvement in their plaque psoriasis symptoms; peripheral neuropathy symptoms (self-reported) [16]: significant improvement in their peripheral neuropathy symptoms |
| CCCCCc1cc(O)c(C/C=C(\C)CCC=C(C)C)c(O)c1 [cannabigerol, 2-geranyl-5-pentylbenzene-1,3-diol] | dose-dependent reduction | dose-dependent reduction | dose-dependent reduction | dose-dependent reduction | dose-dependent reduction | dose-dependent reduction | dose-dependent reduction | dose-dependent reduction | dose-dependent reduction | dose-dependent reduction | dose-dependent reduction | – |
| CCCc1cc(O)c(C/C=C(\C)CCC=C(C)C)c(O)c1 [cannabigerovarin, 2-geranyl-5-propylbenzene-1,3-diol] | dose-dependent reduction | dose-dependent reduction | dose-dependent reduction | dose-dependent reduction | dose-dependent reduction | dose-dependent reduction | dose-dependent reduction | dose-dependent reduction | dose-dependent reduction | dose-dependent reduction | dose-dependent reduction | – |
